Experimental data as given in PubChem BioAssay AID608 (Sanford-Burnham Center for Chemical Genomics, 2007).
“And” between values parts separate entries of the source, which are not always exact repeats. Identical values can stand only once. The source made the active and inactive calls. The rule behind the calls is not given here.

These compounds were tested against Peptidyl-prolyl cis-trans isomerase FKBP1A (Homo sapiens) (UniProt P62942) (assay: FKBP12 binders, biophysical, NMR detection (AID 608)). Conditions: NMR binding, purified FKBP12.
Peptidyl-prolyl cis-trans isomerase FKBP1A (Homo sapiens), sequence (P62942 whole entry, looked up): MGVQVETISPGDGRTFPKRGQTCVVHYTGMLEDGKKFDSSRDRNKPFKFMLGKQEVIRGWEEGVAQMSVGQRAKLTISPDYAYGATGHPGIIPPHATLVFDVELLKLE
With O=C(O)Cn1c(=O)sc2ccccc21 the Kd was > 4 mM (inactive).
In the case of CCC(=O)n1nc(-c2ccco2)nc1N, the Kd is reported as > 4 mM (inactive).
In the case of Nc1cccc(OCC(=O)N2CCOCC2)c1, the Kd is reported as > 4 mM (inactive).
With Cc1ccnc(NS(=O)(=O)c2ccccc2)n1 the Kd was > 4 mM (inactive).
COCC(=O)Nc1cccc(Br)c1 was tested, and the Kd was > 4 mM (inactive).
With OCc1ccc(-n2cncn2)cc1 the Kd was > 4 mM (inactive).
CC(=O)Nc1ccc(S(=O)(=O)N2CCN=C2C)cc1 was tested, and the Kd was > 4 mM (inactive).
In the case of Cc1ccccc1NC(=O)/C=C\C(N)=O, the Kd is reported as > 4 mM (inactive).
In the case of O=C(O)CCSc1nc2ccccc2s1, the Kd is reported as > 4 mM (inactive).
In the case of Oc1ccc([C@H]2Oc3cc(O)cc(O)c3C[C@H]2O)cc1, the Kd is reported as > 4 mM (inactive).
With CC1CN(C(=O)C(Sc2ccccc2)c2ccccc2)CC(C)O1 (stereo not given) the Kd was “inactive”.
For Cc1c(N=CN2CCOCC2)c(=O)n(C)c(=O)n1C, the Kd was > 4 mM (inactive).
COC(=O)C(O)c1ccccc1 (stereo not given) was tested, and the Kd was > 4 mM (inactive).
O=C(c1cnsn1)N1CCN(c2ccccc2)CC1 was tested, and the Kd was > 4 mM (inactive).
For NC(=O)CSCc1c(Cl)cccc1Cl, the Kd was > 4 mM (inactive).
In the case of CS(=O)(=O)c1ccc(N)cc1, the Kd is reported as > 4 mM (inactive).
COc1cc2nc(N3CCNCC3)nc(N)c2cc1OC was tested, and the Kd was > 4 mM (inactive).
In the case of CCOC(=O)C1CCNCC1, the Kd is reported as > 4 mM (inactive).
In the case of CCC[C@@H]1CCCCN1, the Kd is reported as > 4 mM (inactive).
With Nc1cc(N)nc(SCc2cccnc2)n1 the Kd was > 4 mM (inactive).
Clc1cccc(Cl)c1Cn1c(-c2cscn2)nc2ccccc21 was tested, and the Kd was “inactive”.
With Nc1nc2ncc(=O)[nH]c2c(=O)[nH]1 the Kd was > 4 mM (inactive).
In the case of Cc1nnsc1C(=O)Nc1cccc(S(N)(=O)=O)c1, the Kd is reported as > 4 mM (inactive).
In the case of CCOC(=O)CSc1nnc(C)c(=O)[nH]1, the Kd is reported as > 4 mM (inactive).
In the case of O=C(O)Cc1nc(-c2ccncc2)n[nH]1, the Kd is reported as > 4 mM (inactive).
For CCCC(=O)N1CCSCC1, the Kd was > 4 mM (inactive).
Cc1c(-c2ccc(F)cc2)[n+](=O)c2c(n1[O-])CCC2 was tested, and the Kd was > 4 mM (inactive).
In the case of O=c1ccc2ccccc2o1, the Kd is reported as > 4 mM (inactive).
In the case of NCc1ccc(S(=O)(=O)O)cc1, the Kd is reported as > 4 mM (inactive).
O=C(O)CNCC(O)Cn1c2ccccc2c2ccccc21 (stereo not given) was tested, and the Kd was > 4 mM (inactive).
N#Cc1cnn(Cc2ccc(Cl)cc2)c1N was tested, and the Kd was > 4 mM (inactive).
With OCc1ccc2nonc2c1 the Kd was > 4 mM (inactive).
In the case of Cc1nc(-c2ccccc2)ncc1C(=O)O, the Kd is reported as > 4 mM (inactive).
In the case of COc1ccc(Cl)cc1NS(=O)(=O)N1CCOCC1, the Kd is reported as “inactive”.
In the case of O=c1[nH]c(NCCO)nnc1Cc1ccccc1, the Kd is reported as > 4 mM (inactive).
COc1cc2[nH]c(=S)n(C)c(=O)c2cc1OC was tested, and the Kd was > 4 mM (inactive).
With COc1cc([C@@H]2c3cc4c(c(O)c3C[C@H]3COC(=O)[C@@H]32)OCO4)cc(OC)c1OC the Kd was > 4 mM (inactive).
Cc1cccc(N2C(=O)CCC2=O)n1 was tested, and the Kd was > 4 mM (inactive).
In the case of COc1cc(/C=C2/NC(=S)NC2=O)cc(Cl)c1O, the Kd is reported as > 4 mM (inactive).
For Nc1ccccc1OC(F)(F)F, the Kd was > 4 mM (inactive).
For NCc1ccc2c(c1)OCCCO2, the Kd was > 4 mM (inactive).
Compound CC(C)c1ccc(SCC(=O)N2CCOCC2C(=O)OCCCc2cccnc2)cc1 (stereo not given) has a Kd of 0.0056 mM.
In the case of Cc1cc(-c2ccc(Cl)cc2)n2nc(N)nc2n1, the Kd is reported as > 4 mM (inactive).
For Oc1cccc(N2CCOCC2)c1, the Kd was > 4 mM (inactive).
With COc1nc(C)ccc1-c1noc(-c2ccco2)n1 the Kd was > 4 mM (inactive).
For O=C(Nc1ccc(Cl)cn1)c1cnn2cccnc12, the Kd was > 4 mM (inactive).
CC(C)(O)[C@@H]1[C@H]2OC(=O)[C@@H]1[C@]1(O)C[C@H]3O[C@]34C(=O)O[C@H]2[C@]14C was tested, and the Kd was > 4 mM (inactive).
For O=c1c2ccccc2[nH]c2ncccc12, the Kd was > 4 mM (inactive).
In the case of Cn1nc(-c2ccccc2)cc1N, the Kd is reported as > 4 mM (inactive).
With c1coc(CNc2nc(-c3ccncc3)cs2)c1 the Kd was > 4 mM (inactive).
In the case of O=C(O)c1cc(O)c2c(c1)[C@@H]([C@H]1c3cc(C(=O)O)cc(O)c3C(=O)c3c(O[C@H]4O[C@H](CO)[C@@H](O)[C@H](O)[C@H]4O)cccc31)c1cccc(O[C@H]3O[C@H](CO)[C@@H](O)[C@H](O)[C@H]3O)c1C2=O, the Kd is reported as > 4 mM (inactive).
For O=C1CSC2(CN3CCC2CC3)N1 (stereo not given), the Kd was > 4 mM (inactive).
For NC(=O)C1CCN(C(=O)c2ccccc2F)CC1, the Kd was > 4 mM (inactive).
With Cc1cc(=O)n2ccc(CN3CCOCC3)c(O)c2n1 the Kd was > 4 mM (inactive).
Cc1ccc(C)n1CCN1CCNCC1 was tested, and the Kd was > 4 mM (inactive).
For O=C1CC(C(=O)O)c2ccccc21 (stereo not given), the Kd was > 4 mM (inactive).
For Clc1ccccc1OCc1nc(-c2ccncc2)no1, the Kd was > 4 mM (inactive).
For C=C1C2CC[C@@]3(C)[C@H](c4ccoc4)OC(=O)C[C@]13O[C@H]1CC(=O)C(C)(C)C(CC(=O)OC)C21C (stereo not given in full), the Kd was > 4 mM (inactive).
COC(=O)NCc1cc2cc(Cl)ccc2[nH]1 was tested, and the Kd was > 4 mM (inactive).
With Cc1cc(=O)[nH]c(N2CCCCC2)n1 the Kd was > 4 mM (inactive).
For CCOc1nc(C)ccc1-c1noc(-c2ccco2)n1, the Kd was > 4 mM (inactive).
With COc1ccc(C(=O)NCC(=O)O)cc1 the Kd was > 4 mM (inactive).
In the case of O=CN1CCN(C2CC(=O)N(c3ccccc3)C2=O)CC1 (stereo not given), the Kd is reported as > 4 mM (inactive).
For CC(=O)OC[C@@]1(O)C[C@@]23CCC4c5ccoc5CC[C@]4(C)C2CC[C@@H]1C3 (stereo not given in full), the Kd was > 4 mM (inactive).
Cn1c(NCc2ccccc2O)nc2ccccc21 was tested, and the Kd was > 4 mM (inactive).
For O=C1CCC(=O)N1c1ccc(F)cc1, the Kd was > 4 mM (inactive).
In the case of Cc1ccc(C(=O)Nc2c[nH]c(=O)[nH]c2=O)cc1, the Kd is reported as > 4 mM (inactive).
For Cn1c(=O)cc(O)c2ccccc21, the Kd was > 4 mM (inactive).
In the case of Cc1cc(C(=O)NN2CCOCC2)c(C)o1, the Kd is reported as > 4 mM (inactive).
Cc1cc(C(F)(F)F)nn1CC(N)=O was tested, and the Kd was > 4 mM (inactive).
With COc1cc(OC)c(-c2nc3cnccc3n2C)cc1OC the Kd was > 4 mM (inactive).
Cc1nnc2sc(-c3csc4c3CCCC4)nn12 was tested, and the Kd was > 4 mM (inactive).
With Cc1ccc(SCC(=O)N2CCOCC2)cc1 the Kd was 0.022 mM and 0.012 mM.
For CC(C)NC(=O)Cc1c(O)c2ccccc2[nH]c1=O, the Kd was > 4 mM (inactive).
In the case of CCCCN1C(=O)C2CC/C(=N/O)CC2C1=O (stereo not given), the Kd is reported as > 4 mM (inactive).
For CCCCCCCCCCCC[C@H](C(=O)O)[C@@H](C)C(=O)O, the Kd was > 4 mM (inactive).
In the case of CN(C)C(=O)CCNS(=O)(=O)c1ccccc1, the Kd is reported as > 4 mM (inactive).
O=C(CSc1ccccc1)N1CCC2(CC1)OCCO2 was tested, and the Kd was > 4 mM (inactive).
Cc1nc2ccccc2c(=O)n1-c1cccc(O)c1 was tested, and the Kd was > 4 mM (inactive).
For O=C1CCCC(=O)N1Cc1ccco1, the Kd was > 4 mM (inactive).
CC(C)(O)P(C)(=O)c1ccccc1 (stereo not given) was tested, and the Kd was > 4 mM (inactive).
With O=C(c1ccccc1)N1CCN(c2ccccc2F)CC1 the Kd was > 4 mM (inactive).
In the case of Cc1cc(C)nc(NC(N)=NCc2ccco2)n1, the Kd is reported as > 4 mM (inactive).
For CC(=O)N1CC2(C)CN(C(C)=O)CC(C)(C1)C2O (stereo not given), the Kd was > 4 mM (inactive).
With CC(C)CCCC(C)[C@H]1CCC2C3CC[C@@H]4C[C@H](O)CC[C@]4(C)C3CC[C@@]21C (stereo not given in full) the Kd was > 4 mM (inactive).
With Cc1cc(C)n2nc(N)nc2n1 the Kd was > 4 mM (inactive).
In the case of CC(=O)N1CN(C(C)=O)CN(C(C)=O)C1, the Kd is reported as > 4 mM (inactive).
Oc1ccc(/C=C/c2cc(O)cc(O)c2)cc1 was tested, and the Kd was > 4 mM (inactive).
For c1coc(-c2nc(-c3ccncc3)no2)c1, the Kd was > 4 mM (inactive).
In the case of Cc1ccc(C(=O)NC2=NCCS2)o1, the Kd is reported as > 4 mM (inactive).
In the case of Nc1ncnc2nc[nH]c12, the Kd is reported as > 4 mM (inactive).
With O=C(O)CN1CCN(C2CCCC2)CC1 the Kd was > 4 mM (inactive).
CN1CCC[C@H]1c1cccnc1 was tested, and the Kd was > 4 mM (inactive).
In the case of COc1cc2c(cc1-c1coc3c4c(c(OC)cc3c1=O)OC(C)(C)C=C4)OCO2, the Kd is reported as > 4 mM (inactive).
For C[C@@H]1O[C@@H](O[C@H]2C[C@@H](O)[C@]3(CO)C4C(CC[C@]3(O)C2)[C@@]2(O)CC[C@H](C3=CC(=O)OC3)[C@@]2(C)C[C@H]4O)[C@H](O)[C@H](O)[C@H]1O (stereo not given in full), the Kd was > 4 mM (inactive).
c1ccc(Cc2nnc3sc(-c4ccccn4)nn23)cc1 was tested, and the Kd was > 4 mM (inactive).
With Fc1ccc(N2CCNCC2)cc1 the Kd was > 4 mM (inactive).
With CN(C)/C=N/S(=O)(=O)c1ccccc1 the Kd was > 4 mM (inactive).
CCNS(=O)(=O)c1cc(Br)ccc1OC was tested, and the Kd was > 4 mM (inactive).
Cn1c(O)c(/C=C2\C=CC=N2)c(=O)[nH]c1=S was tested, and the Kd was > 4 mM (inactive).
In the case of CC1(C)C=Cc2c(cc3occ(-c4ccc5c(c4)OCO5)c(=O)c3c2O)O1, the Kd is reported as > 4 mM (inactive).
O=C(O)C(CO)c1ccccc1 (stereo not given) was tested, and the Kd was > 4 mM (inactive).
With O=C(c1cc(-c2ccccc2)on1)N1CCCC1 the Kd was > 4 mM (inactive).
COc1ccc(-c2ccc(SCC(N)=O)nn2)cc1 was tested, and the Kd was > 4 mM (inactive).
For CCOCC(=O)NCc1n[nH]c(=O)c2ccccc12, the Kd was > 4 mM (inactive).
In the case of CC1(C)CC2(C)N(N)C(=O)CN2C(=S)N1 (stereo not given), the Kd is reported as > 4 mM (inactive).
For CC1(C)C(=O)C=C[C@@]2(C)C1C=C[C@]1(C)C2CC[C@@]2(C)[C@H](c3ccoc3)OC(=O)C3OC321 (stereo not given in full), the Kd was > 4 mM (inactive).
In the case of COC(=O)c1oc2ccc(Cl)cc2c1NC(C)=O, the Kd is reported as > 4 mM (inactive).
O=C1CSC(=Nc2ccc(C(=O)O)cc2)N1 was tested, and the Kd was > 4 mM (inactive).
With Cc1nc2ccccc2c2c1C(=O)N(N)C2=O the Kd was > 4 mM (inactive).
O=C(Nc1nnc(-c2ccco2)o1)c1ccc([N+](=O)[O-])o1 was tested, and the Kd was > 4 mM (inactive).
For NC(=O)CCS(=O)(=O)CCN1CCOCC1, the Kd was > 4 mM (inactive).
In the case of O=C(COc1ccc(Cl)cc1Cl)N1CCOCC1, the Kd is reported as “inactive”.
With Nc1ccc(S(=O)(=O)N2CCCCC2)cc1 the Kd was > 4 mM (inactive).
With CC(=O)Nc1nnc(-c2ccccc2)o1 the Kd was > 4 mM (inactive).
For O=C(Nc1c[nH]c(=O)[nH]c1=O)c1cccs1, the Kd was > 4 mM (inactive).
For CN(C)c1nc(N)nc(Cn2ccnc2)n1, the Kd was > 4 mM (inactive).
With COc1ccc2[nH]c(O)c(NC(C)=O)c2c1 the Kd was > 4 mM (inactive).
For CC(=O)CC1CCCCN1 (stereo not given), the Kd was > 4 mM (inactive).
With S=c1nc2c(n[nH]1)[nH]c1ccccc12 the Kd was > 4 mM (inactive).
